Here are results for 1 compound from paper PMC6855250 (Nature, 2019).

The structures appear in SMILES notation.

This experiment concerns the target SidJ∆N99-CaM (Legionella pneumophila, UniProt Q5ZTK6).

SidJ∆N99-CaM, sequence (Q5ZTK6 whole entry, looked up): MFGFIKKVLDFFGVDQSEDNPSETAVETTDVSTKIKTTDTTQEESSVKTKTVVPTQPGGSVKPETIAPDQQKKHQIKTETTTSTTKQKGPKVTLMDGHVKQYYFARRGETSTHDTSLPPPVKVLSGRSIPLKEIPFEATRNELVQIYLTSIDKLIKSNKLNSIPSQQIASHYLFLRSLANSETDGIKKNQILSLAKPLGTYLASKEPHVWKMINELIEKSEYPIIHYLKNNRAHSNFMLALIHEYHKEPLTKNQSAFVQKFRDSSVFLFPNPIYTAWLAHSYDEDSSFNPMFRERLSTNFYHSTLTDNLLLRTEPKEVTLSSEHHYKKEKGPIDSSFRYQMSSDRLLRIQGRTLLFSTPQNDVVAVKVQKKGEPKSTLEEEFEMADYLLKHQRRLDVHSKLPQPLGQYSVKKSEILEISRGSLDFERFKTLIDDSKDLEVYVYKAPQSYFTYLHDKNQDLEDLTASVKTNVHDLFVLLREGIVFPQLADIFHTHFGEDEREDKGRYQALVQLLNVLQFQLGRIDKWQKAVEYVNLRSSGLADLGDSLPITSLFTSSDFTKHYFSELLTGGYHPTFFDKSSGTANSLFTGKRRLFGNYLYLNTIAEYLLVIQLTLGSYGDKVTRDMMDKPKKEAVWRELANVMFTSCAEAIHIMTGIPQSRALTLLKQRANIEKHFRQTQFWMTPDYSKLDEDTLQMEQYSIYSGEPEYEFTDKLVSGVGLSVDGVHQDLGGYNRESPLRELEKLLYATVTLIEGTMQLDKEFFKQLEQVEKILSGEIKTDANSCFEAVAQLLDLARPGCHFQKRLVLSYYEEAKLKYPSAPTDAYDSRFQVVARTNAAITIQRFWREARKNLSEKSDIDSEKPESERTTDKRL

Take `Nc1ncnc2c1ncn2[C@@H]1O[C@H](COP(=O)(O)O)[C@@H](O)[C@H]1O` [AMP]: the “X-ray crystal structure, 3.11 Å” value was “We observed an AMP moiety bound in a pocket formed in the CD”.
